Reference: ChEMBL document CHEMBL1201862, “PubChem BioAssay data set” (2004)
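Step 1: Grow cells in 96-well plates. Step 2: Expose to compound for 48 hours at 5 concentrations. Step 3: Interpolate endpoints linearly; if unreached, use highest concentration. GI50 = concentration required for 50% inhibition of growth.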 Calls of active or inactive are those of the source. No stated cut-off is given here; in the data, active = GI50 up to about 1.1 µM and inactive = higher.

What was measured:
Test in all cases: inhibition of tumour cell growth, NCI panel, 48 h
MOLT-4 = test system: MOLT-4
UACC-257 = test system: UACC-257
SK-OV-3 = test system: SK-OV-3
HCT-116 = test system: HCT-116
OVCAR-4 = test system: OVCAR-4
BT-549 = test system: BT-549
RPMI-8226 = test system: RPMI-8226
COLO 205 = test system: COLO 205
SK-MEL-28 = test system: SK-MEL-28
CCRF-CEM = test system: CCRF-CEM
SF-268 = test system: SF-268
SK-MEL-2 = test system: SK-MEL-2
SR = test system: SR
MDA-N = test system: MDA-N
HOP-62 = test system: HOP-62
OVCAR-8 = test system: OVCAR-8
A549 = test system: A549
HL-60 = test system: HL-60
EKVX = test system: EKVX
M19-MEL = test system: M19-MEL

Row | Structure (SMILES) | GI50 (MOLT-4) | GI50 (UACC-257) | GI50 (SK-OV-3) | GI50 (HCT-116) | GI50 (OVCAR-4) | GI50 (BT-549) | GI50 (RPMI-8226) | GI50 (COLO 205) | GI50 (SK-MEL-28) | GI50 (CCRF-CEM) | GI50 (SF-268) | GI50 (SK-MEL-2) | GI50 (SR) | GI50 (MDA-N) | GI50 (HOP-62) | GI50 (OVCAR-8) | GI50 (A549) | GI50 (HL-60) | GI50 (EKVX) | GI50 (M19-MEL)
1 | O=C1C(c2c(O)[nH]c3ccc(Br)cc23)=Nc2ccccc21 | 18.2 µM (inactive) | 24.2 µM (inactive) | 13 µM (inactive) | 2.32 µM (inactive) | 9.04 µM (inactive) | 19.5 µM (inactive) | 8.79 µM (inactive) | 5.65 µM (inactive) | 29 µM (inactive) | 22.7 µM (inactive) | 9.62 µM (inactive) | 11.9 µM (inactive) | 6.73 µM (inactive) | 14 µM (inactive) | 12.4 µM (inactive) | 6.78 µM (inactive) | 4.07 µM (inactive) | 96.2 µM (inactive) | 2.93 µM (inactive) | –
2 | O=C(O)c1ccc(C(=O)c2ccccc2)c(C(=O)O)c1 | > 100 µM (inactive) | > 100 µM (inactive) | > 100 µM (inactive) | > 100 µM (inactive) | > 100 µM (inactive) | > 100 µM (inactive) | > 100 µM (inactive) | > 100 µM (inactive) | > 100 µM (inactive) | > 100 µM (inactive) | > 100 µM (inactive) | > 100 µM (inactive) | > 100 µM (inactive) | > 100 µM (inactive) | > 100 µM (inactive) | > 100 µM (inactive) | > 100 µM (inactive) | > 100 µM (inactive) | > 100 µM (inactive) | –
3 | NC(=S)N/N=C1\C(=O)N(CCc2ccccc2)C(=O)C1C(=O)NCCc1ccccc1 (configuration not stated) | – | > 100 µM (inactive) | > 100 µM (inactive) | > 100 µM (inactive) | > 100 µM (inactive) | – | > 100 µM (inactive) | > 100 µM (inactive) | > 100 µM (inactive) | – | > 100 µM (inactive) | > 100 µM (inactive) | – | – | > 100 µM (inactive) | > 100 µM (inactive) | – | – | > 100 µM (inactive) | > 100 µM (inactive)
4 | Cc1ccccc1/N=N/c1ccc(N/N=C2/CCCNC2=O)c(C)c1 | 34.6 µM (inactive) | > 100 µM (inactive) | > 100 µM (inactive) | > 100 µM (inactive) | 66.8 µM (inactive) | > 100 µM (inactive) | > 100 µM (inactive) | > 100 µM (inactive) | > 100 µM (inactive) | 9.46 µM (inactive) | > 100 µM (inactive) | > 100 µM (inactive) | 36.1 µM (inactive) | > 100 µM (inactive) | > 100 µM (inactive) | – | 68.1 µM (inactive) | 8.55 µM (inactive) | 88.5 µM (inactive) | –
5 | CCOC1OC(C)(C=C(C#N)C#N)CCC1C (configuration not stated) | 33.3 µM (inactive) | > 71.6 µM (inactive) | > 100 µM (inactive) | 29.9 µM (inactive) | 49.3 µM (inactive) | 21.4 µM (inactive) | 21 µM (inactive) | 36.8 µM (inactive) | 47.2 µM (inactive) | 30.3 µM (inactive) | 43.2 µM (inactive) | > 100 µM (inactive) | 22.1 µM (inactive) | 47.2 µM (inactive) | 22.9 µM (inactive) | 27.7 µM (inactive) | 45.5 µM (inactive) | 26.9 µM (inactive) | 33.3 µM (inactive) | –
6 | Cc1ccc(/C=C2\CCCCC2=O)cc1 | 15.8 µM (inactive) | – | > 100 µM (inactive) | 43.4 µM (inactive) | 33.6 µM (inactive) | – | – | > 100 µM (inactive) | > 100 µM (inactive) | 28.1 µM (inactive) | > 100 µM (inactive) | – | – | – | > 100 µM (inactive) | > 100 µM (inactive) | > 100 µM (inactive) | 19 µM (inactive) | > 100 µM (inactive) | > 100 µM (inactive)
7 | COc1ccc(C(=O)C#Cc2cnc(OC)nc2OC)cc1 | 0.0531 µM (active) | 2.09 µM (inactive) | 14.1 µM (inactive) | 1.32 µM (inactive) | 6.5 µM (inactive) | 1.6 µM (inactive) | 1.93 µM (inactive) | 1.57 µM (inactive) | 1.61 µM (inactive) | 0.13 µM (active) | 2.74 µM (inactive) | 1.42 µM (inactive) | 0.0491 µM (active) | 1.58 µM (inactive) | 17 µM (inactive) | 1.56 µM (inactive) | 4.17 µM (inactive) | 1.63 µM (inactive) | 1.83 µM (inactive) | –
8 | CCCCC(/C=C\COC1CCCCO1)=C/C(=O)OCC (configuration not stated) | 25.1 µM (inactive) | > 100 µM (inactive) | > 100 µM (inactive) | 28.6 µM (inactive) | 61.2 µM (inactive) | > 100 µM (inactive) | 25.9 µM (inactive) | > 100 µM (inactive) | > 100 µM (inactive) | 33.8 µM (inactive) | > 100 µM (inactive) | > 100 µM (inactive) | 32.6 µM (inactive) | 63.1 µM (inactive) | > 100 µM (inactive) | 94.4 µM (inactive) | 56.6 µM (inactive) | 29.2 µM (inactive) | 37 µM (inactive) | –
9 | O=C1C([P+](c2ccccc2)(c2ccccc2)c2ccccc2)=C([O-])C(=Cc2ccc(Cl)c(Cl)c2)C([O-])=C1[P+](c1ccccc1)(c1ccccc1)c1ccccc1 | 0.421 µM (active) | 2.43 µM (inactive) | 1.93 µM (inactive) | 1.68 µM (inactive) | 2.97 µM (inactive) | 2.27 µM (inactive) | 1.22 µM (inactive) | 1.73 µM (inactive) | 2.49 µM (inactive) | 0.465 µM (active) | 1.72 µM (inactive) | 2.44 µM (inactive) | 0.925 µM (active) | 1.9 µM (inactive) | 3.54 µM (inactive) | 2.23 µM (inactive) | 2.62 µM (inactive) | 0.735 µM (active) | 2.47 µM (inactive) | –
10 | CN1CC=C(OP(=O)(NCc2ccccc2)N(CCCl)CCCl)CC1 (configuration not stated) | > 100 µM (inactive) | 70.5 µM (inactive) | > 100 µM (inactive) | > 100 µM (inactive) | > 100 µM (inactive) | > 100 µM (inactive) | > 100 µM (inactive) | > 100 µM (inactive) | 95.3 µM (inactive) | > 100 µM (inactive) | > 100 µM (inactive) | > 100 µM (inactive) | > 100 µM (inactive) | > 100 µM (inactive) | > 100 µM (inactive) | > 100 µM (inactive) | – | > 100 µM (inactive) | > 100 µM (inactive) | –
11 | Cc1ccc(-c2nc(N/N=C/C=C/c3ccccc3)c3ccccc3n2)cc1 | > 100 µM (inactive) | 34 µM (inactive) | 23.8 µM (inactive) | 26.6 µM (inactive) | 50.5 µM (inactive) | 23.1 µM (inactive) | > 100 µM (inactive) | 57.3 µM (inactive) | 34.2 µM (inactive) | > 100 µM (inactive) | 33.5 µM (inactive) | 24.9 µM (inactive) | > 100 µM (inactive) | 74.6 µM (inactive) | 64.4 µM (inactive) | 44.2 µM (inactive) | 34.4 µM (inactive) | > 100 µM (inactive) | 15 µM (inactive) | –
12 | Cc1nn(C(=O)c2ccc(Cl)cc2)c2c1C(c1ccc([N+](=O)[O-])cc1)SC(=N)N2 (configuration not stated) | > 10 µM (inactive) | > 10 µM (inactive) | > 10 µM (inactive) | > 10 µM (inactive) | > 10 µM (inactive) | > 10 µM (inactive) | > 10 µM (inactive) | > 10 µM (inactive) | > 10 µM (inactive) | > 10 µM (inactive) | > 10 µM (inactive) | > 10 µM (inactive) | > 10 µM (inactive) | > 10 µM (inactive) | > 10 µM (inactive) | > 10 µM (inactive) | > 10 µM (inactive) | > 10 µM (inactive) | > 10 µM (inactive) | –
13 | C/C(=N\NC(=S)Nc1ccc([N+](=O)[O-])cc1)c1nc2cccnc2[nH]1 | 0.377 µM (active) | 0.565 µM (active) | 1.16 µM (inactive) | 0.515 µM (active) | 0.583 µM (active) | 0.452 µM (active) | 1.87 µM (inactive) | 2.44 µM (inactive) | 0.698 µM (active) | 0.381 µM (active) | 0.278 µM (active) | 1.31 µM (inactive) | 0.388 µM (active) | 1.78 µM (inactive) | 1.07 µM (active) | 0.348 µM (active) | 0.783 µM (active) | 0.652 µM (active) | 0.227 µM (active) | –
14 | CC(C)=C[C@@H]1O[C@H](O)[C@@H]([C@H]2CC[C@@]3(C)[C@@H]4CC[C@H]5C(C)(C)C(=O)CC[C@@]56C[C@@]46CC[C@]23C)[C@@H]1O | 14.1 µM (inactive) | 16.7 µM (inactive) | 16.5 µM (inactive) | 15.2 µM (inactive) | 18.1 µM (inactive) | 20.1 µM (inactive) | 3.14 µM (inactive) | 20.1 µM (inactive) | 22.8 µM (inactive) | 9.93 µM (inactive) | 17.6 µM (inactive) | 20 µM (inactive) | 9.64 µM (inactive) | 15.9 µM (inactive) | 23.7 µM (inactive) | 15.4 µM (inactive) | 14.4 µM (inactive) | 14.2 µM (inactive) | 18.5 µM (inactive) | –
15 | COc1cc(O)c(C(=O)/C=C/c2ccccc2)c(OC)c1 [FLAVOKAWAIN B] | 5.37 µM (inactive) | 10.8 µM (inactive) | 11.6 µM (inactive) | 5.64 µM (inactive) | 8 µM (inactive) | 4.47 µM (inactive) | 3.85 µM (inactive) | 14.5 µM (inactive) | 3.34 µM (inactive) | 2.27 µM (inactive) | 4.98 µM (inactive) | 4.62 µM (inactive) | 1.85 µM (inactive) | 3.78 µM (inactive) | 12 µM (inactive) | 3.64 µM (inactive) | 10.3 µM (inactive) | 1.21 µM (inactive) | 10.4 µM (inactive) | –
